# From patent US12178809B2, “Pyridinyl sulfonamide derivatives, pharmaceutical compositions and uses thereof” (Boehringer Ingelheim International GmbH, priority 2018, dated 2024)
# What was measured:
# [1] = molecular target: AOC1 (Homo sapiens (Human), UniProt P19801); assay: AOC1 biochemical assay (Amplex Red); conditions: comparison table, unit μM; read-out: IC50 AOC1
# Protocol: The Amplex® Red Assay (available from Thermo Fisher Scientific) provides a sensitive method for the detection of H2O2 generated during enzymatic reactions like the amine oxidation catalyzed by AOC1. The assay reagent is a colorless substrate (N-acetyl-3,7-dihydroxyphenoxazine) that reacts in a 1:1 stoichiometry with hydrogen peroxide (H2O2) to produce the fluorescent dye resorufin (7-hydroxyphenoxazin-3-one, excitation/emission maxima=570/585 nm).
# An aliquot of 3 μL of the compound dilution is added to a 384 well plate (Optiplate, PS, flat bottom F, black, PERKIN ELMER, #6007270) in a DMSO concentration of 6.6%.
# An AOC1 enzyme aliquot (#8297-AO-010, R&D Systems) is thawed on ice, diluted in reaction buffer and added in a volume of 7 μL to the wells to give a final assay concentration of 1 ng/well. After incubation of inhibitor and enzyme for 30 minutes at 37° C., the enzymatic reaction is started with the addition of 10 μL of Amplex® Red reaction mix (final assay concentration: 100 mM sodiumphosphate, 120 μM Amplex® Red reagent (#A22177 Molecular Probes), 1.5 U/mL Horseradish Peroxidase (#P8375 Sigma-Aldrich), 200 μM putrescine (#P7505 Sigma-Alrdich), 0.05% Pluronic F-127 (#P3000MP Sigma-Aldrich), pH 7.4, 37° C.).
# After an incubation for 30 minutes at 37° C. the turnover of the substrate is determined directly (or after the addition of an excess of an amine-oxidase inhibitor) with a fluorescence reader (Ex 540 nm/Em 590 nm) like Envision 2104 Multilabel Reader (PERKIN ELMER).
# [2] = molecular target: AOC2 (Homo sapiens (Human), UniProt O75106); assay: AOC2 biochemical assay (Amplex Red)
# Protocol: An aliquot of 5 μL of the compound dilution is added to a 96 well plate (flat bottom F, black, GREINER bio-one, #655900) in a DMSO concentration of 2%. […] Cells are cultured for 3 days in EMEM culture medium containing 10% FCS (#04-00-1A, Biological Industries). After washing twice with ice cold PBS, cells are lysed by mechanic homogenation and cleared supernatants are shock frozen in liquid nitrogen and stored at -80° C. […] An Aliquot of 45 μL is added to the compound dilution and incubated for 30 min at 37° C. The enzymatic reaction is started with the addition of 50 μL of Amplex® Red reaction mix (final assay concentration: 100 mM sodiumphosphate, 120 μM Amplex® Red reagent (#A22177 Molecular Probes), 1.5 U/mL Horseradish Peroxidase (#P8375 Sigma-Aldrich), 2 mM phenylethylamine (#[…] Sigma-Aldrich), 0.05% Pluronic F-127 (#P3000MP Sigma-Aldrich), pH 7.4, 37° C.). The turnover per time of the substrate is determined directly with a fluorescence reader (Ex 540 nm/Em 590 nm) like Envision 2104 Multilabel Reader (PERKIN ELMER) for 60 min.
# [3] = molecular target: human AOC3 enzyme (Homo sapiens (Human), UniProt Q16853); assay: AOC3 biochemical assay (MAO-Glo); conditions: comparison table; read-out: IC50 AOC3
# Description: The MAO-Glo™ Assay (commercially available from PROMEGA, #V1402) provides a sensitive method for the measurement of monoamine oxidase (MAO) activity (Valley, M. P. et al., 2006, Anal. Biochem. 359: 238-246) from a variety of tissues, biofluids or recombinant expressed or purified enzymes. As substrate a derivate of the beetle luciferin ((4S)-4,5-dihydro-2-(6-hydroxybenzothiazolyl)-4-thiazole-carboxylic acid) is used, which is oxidized at a primary amine moiety. After a spontaneous elimination and a catalyzed esterase reaction, the turnover of the luciferine by the luciferase is recorded as a signal of AOC3 activity.
# An aliquot of 3 μL of the compound dilution is added to a 384 well plate (Optiplate, PS, flat bottom, white, PERKIN ELMER, #6007290) with a final DMSO concentration of 6.6%. Recombinant CHO cells, overexpressing the human (1500 cells/well), mouse (1000 cells/well) or rat (500 cells/well) AOC3 enzyme are diluted in reaction buffer and added in a volume of 15 μL to the wells. After incubation for 20 minutes at 37° C., 2 μL of MAO substrate (dissolved in DMSO at 16 mM, adjusted to assay concentration in reaction buffer to a final assay concentration of 20 μM) is added and further incubated for 60 minutes at 37° C. The turnover of the substrate is determined by the addition of 20 μL of the detection-mix which was generated by the addition of reconstitution buffer with esterase (PROMEGA, #V1402) to the luciferine detection reagent (PROMEGA, #V1402). After an incubation period of 20 minutes, the luminescent signal is measured with Envision 2104 Multilabel Reader (PERKIN ELMER).
# AOC2, sequence (O75106 whole entry): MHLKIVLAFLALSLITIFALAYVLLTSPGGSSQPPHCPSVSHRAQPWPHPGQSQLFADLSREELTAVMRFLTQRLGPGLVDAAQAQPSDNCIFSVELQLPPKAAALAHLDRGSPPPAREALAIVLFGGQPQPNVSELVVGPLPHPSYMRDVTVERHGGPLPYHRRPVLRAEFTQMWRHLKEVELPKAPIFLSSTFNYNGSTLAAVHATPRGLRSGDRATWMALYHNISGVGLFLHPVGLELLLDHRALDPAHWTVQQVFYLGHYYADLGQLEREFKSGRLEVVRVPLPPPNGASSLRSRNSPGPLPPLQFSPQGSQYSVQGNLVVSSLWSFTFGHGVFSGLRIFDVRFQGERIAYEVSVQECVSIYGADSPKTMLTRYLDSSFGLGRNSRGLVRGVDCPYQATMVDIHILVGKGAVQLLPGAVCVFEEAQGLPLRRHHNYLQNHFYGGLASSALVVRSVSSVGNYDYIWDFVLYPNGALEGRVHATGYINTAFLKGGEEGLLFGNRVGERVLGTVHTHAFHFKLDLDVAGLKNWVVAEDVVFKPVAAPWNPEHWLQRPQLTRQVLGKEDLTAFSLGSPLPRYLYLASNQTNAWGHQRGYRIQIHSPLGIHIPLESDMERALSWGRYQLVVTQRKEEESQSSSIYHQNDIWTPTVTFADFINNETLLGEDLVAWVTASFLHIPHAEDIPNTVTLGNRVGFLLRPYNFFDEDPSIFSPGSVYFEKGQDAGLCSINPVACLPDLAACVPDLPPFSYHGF
# human AOC3 enzyme, sequence (Q16853 whole entry): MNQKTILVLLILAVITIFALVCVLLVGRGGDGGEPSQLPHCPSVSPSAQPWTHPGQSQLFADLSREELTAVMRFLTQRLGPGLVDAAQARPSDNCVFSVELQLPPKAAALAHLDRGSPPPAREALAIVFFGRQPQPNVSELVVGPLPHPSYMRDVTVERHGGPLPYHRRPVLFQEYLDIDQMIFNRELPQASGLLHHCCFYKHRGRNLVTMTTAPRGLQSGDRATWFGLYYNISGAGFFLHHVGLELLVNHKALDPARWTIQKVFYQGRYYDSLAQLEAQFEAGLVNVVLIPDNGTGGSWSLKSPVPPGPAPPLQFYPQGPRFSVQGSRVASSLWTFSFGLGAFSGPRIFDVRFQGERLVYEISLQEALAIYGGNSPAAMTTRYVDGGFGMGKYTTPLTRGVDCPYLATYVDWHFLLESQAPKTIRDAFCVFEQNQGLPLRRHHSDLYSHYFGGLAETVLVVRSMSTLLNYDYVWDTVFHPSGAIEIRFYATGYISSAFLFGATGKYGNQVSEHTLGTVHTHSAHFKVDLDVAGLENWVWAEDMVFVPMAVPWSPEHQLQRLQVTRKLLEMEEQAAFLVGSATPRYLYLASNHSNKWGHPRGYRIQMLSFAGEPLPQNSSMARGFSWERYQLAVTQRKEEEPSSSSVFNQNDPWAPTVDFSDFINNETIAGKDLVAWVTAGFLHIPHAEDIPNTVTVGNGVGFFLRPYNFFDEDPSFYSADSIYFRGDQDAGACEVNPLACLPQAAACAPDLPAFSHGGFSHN
# AOC1, sequence (P19801 20-751): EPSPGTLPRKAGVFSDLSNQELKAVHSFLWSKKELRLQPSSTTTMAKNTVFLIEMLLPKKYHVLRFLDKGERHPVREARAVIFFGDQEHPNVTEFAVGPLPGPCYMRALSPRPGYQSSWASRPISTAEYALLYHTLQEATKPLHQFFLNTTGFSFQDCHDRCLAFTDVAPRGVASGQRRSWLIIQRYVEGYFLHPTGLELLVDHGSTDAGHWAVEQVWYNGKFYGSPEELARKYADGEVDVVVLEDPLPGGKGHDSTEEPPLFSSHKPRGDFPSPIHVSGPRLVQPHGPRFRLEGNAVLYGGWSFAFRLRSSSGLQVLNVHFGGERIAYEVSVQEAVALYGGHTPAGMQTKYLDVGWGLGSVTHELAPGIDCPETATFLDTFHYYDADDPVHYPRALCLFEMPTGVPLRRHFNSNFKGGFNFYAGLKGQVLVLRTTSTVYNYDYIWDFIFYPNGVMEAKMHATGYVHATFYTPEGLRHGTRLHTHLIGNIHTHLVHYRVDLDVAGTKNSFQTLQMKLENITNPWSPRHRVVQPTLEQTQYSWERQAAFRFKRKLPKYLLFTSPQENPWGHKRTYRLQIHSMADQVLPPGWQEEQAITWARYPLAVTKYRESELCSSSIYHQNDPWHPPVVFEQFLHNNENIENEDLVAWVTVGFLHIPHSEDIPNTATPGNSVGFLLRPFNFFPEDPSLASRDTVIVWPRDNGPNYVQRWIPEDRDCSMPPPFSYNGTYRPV
compound,measurement,setting,value
"COC1CN(S(=O)(=O)c2ccc(OC/C(=C/F)CN)cc2)C1 [Reference compound A, reference compound]",IC50,[1],> 50 µM
same,fold less active against AOC2 as compared to AOC3 (ratio IC50 AOC2/IC50 AOC3),[2],22 fold
same,IC50,"[2]; comparison table, read-out: IC50 AOC2",287 nM
same,IC50,[3],13 nM
